In patent US20060014231A1, “Methods and compositions to promote bone homeostasis” (priority 2004, published 2006):
“Also recorded” adds a separate entry of the source.

Legend:
[1] = target: T1, NR1H3 (Homo sapiens, UniProt Q13133); test: Osteogenic marker mRNA levels in MPCs, Ad-NR1H3+T0901317 (rtRT-PCR); assay type: cell-based; settings: Ad-NR1H3+T0901317 (1 μM); up-regulated = 4-fold higher than Ad-eGFP or Ad-luciferase; one or more time points
T1 construct: amplification of the complete open reading frame from ATG start codon to the stop codon of drugable genes; expressed in transfected cells; host or cells: primary human bone-marrow mesenchymal progenitor cells (MPCs), adenoviral transduction (Ad5-NR1H3 with Ad-hCAR)
T1 sequence (Q13133 1-447): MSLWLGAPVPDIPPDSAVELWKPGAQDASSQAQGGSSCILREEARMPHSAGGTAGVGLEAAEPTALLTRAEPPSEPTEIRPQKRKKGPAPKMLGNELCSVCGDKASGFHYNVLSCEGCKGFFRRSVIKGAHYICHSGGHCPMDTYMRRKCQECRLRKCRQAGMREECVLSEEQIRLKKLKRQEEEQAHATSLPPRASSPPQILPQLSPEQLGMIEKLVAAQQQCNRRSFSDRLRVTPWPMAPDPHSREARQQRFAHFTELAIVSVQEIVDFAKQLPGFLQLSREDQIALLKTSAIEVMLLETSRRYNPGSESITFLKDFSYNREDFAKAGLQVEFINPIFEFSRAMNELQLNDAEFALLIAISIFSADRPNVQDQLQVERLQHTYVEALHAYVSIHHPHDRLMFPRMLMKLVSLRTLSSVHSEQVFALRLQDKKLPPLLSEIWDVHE
Experimental: 100,000 MPCs are seeded in each well of a 6 well plate in 2 ml MPC medium, containing 10% FCS. The next day, after incubation at 37° C., 10% CO2 in a humidified incubator, cells are co-infected with AdC15-hCAR (final MOI of 750) and Ad-NR5A2, Ad-NR1H3+T0901317 (1 μM) or Ad-BMP2 (positive control) or Ad-eGFP or Ad-luciferase as negative controls (final MOIs of 1250 and 2500). Cells are incubated at 37° C., 10% CO2 in a humidified incubator for a further six days unless cells are already harvested for RNA isolation. Virus is removed and replaced by 2 ml fresh OS medium (proprietary medium containing 10% FCS). Over the next 3 weeks, medium is refreshed 3 times per 2 weeks. Every other time, medium is refreshed half or completely. Monolayers are harvested at several time points (see FIG. 15), total RNA is harvested and quantified and rtRT-PCRs are run as follows: monolayers are washed with ice cold PBS and harvested by adding SV RNA Lysis Buffer. Total RNA is prepared using the SV Total RNA isolation System (Promega, Cat # Z3100). RNA concentration is measured with the Ribogreen RNA Quantification kit (Molecular Probes, Leiden, The Netherlands, Cat No. R-11490). cDNA synthesis is performed using 20 ng total RNA per reaction using the TaqMan Universal PCR Master Mix, No AmpErase UNG, kit (Applied Biosystems, Warrington, UK, Part number 4324018). For each reverse transcriptase (RT) reaction a minus-RT reaction (negative control: no enzyme included in the reaction) is performed. The real-time reverse transcriptase (rtRT)-PCR reaction is performed with gene specific primers on both cDNA and minus-RT samples, using the SYBR Green PCR Master Mix (Applied Biosystems, Warrington, UK, Part number 4309155). Primers are quality controlled by performing PCR reactions on human genomic DNA and on plasmids containing the cDNA encoded by the gene studied if available. If the quality is unsatisfactory, additional primers are designed or validated primer sets are purchased (ABI). For the normalization of the expression levels a RT-PCR reaction is performed on human P-actin using the Human P-actin kit (Applied Biosystems, Warrington, UK, Part number 4310881E). The following program is run on a real-time PCR apparatus (ABI PRISM 7000 Sequence Detection System): 10 min at 25° C., 30 min at 48° C., 5 min at 95° C.
Expression levels for osteogenic marker genes are first normalized for beta-actin levels. The resulting data for Ad-BMP2, Ad-NR5A2 and Ad-NR1H3+T0901317 (1 μM) samples are then compared to those of Ad-eGFP or Ad-luciferase negative control samples, harvested at the same time points, for cells infected at the same MOI.

[2] = system: calvarial skull bones (hemicalvaria); test: Calvarial skull assay (bone organ culture, weight and histological readout); parameters: species or system CD1 mice
Experimental: CD1 pups are harvested around birth from CD1 female mice (received from Janvier (Le Genest St Isle, France) when they were 11 days pregnant). Pups are decapitated and the calvarial skull is dissected and split into 2 hemicalvaria. Hemicalvaria are blotted using sterile gauze, weighed and cultured in 24 well plates (MEMalpha or BGJb-Fitton-Jackson medium containing 50 μg/ml L-ascorbic acid (Sigma, A-4034), 5 mM β-glycerophosphate (Sigma, G-9891) and Penicillin-Streptomycin (Invitrogen Cat # 15140-122)). Small molecules (ligands, agonists, antagonists) are tested in at least three-fold at a minimum of 3 concentrations. Each small molecule is added to the medium on day 0 and added again when refreshing the medium (every 2-3 days). Three to 16 days after the start of the experiment, skulls are weighed again after blotting them dry using sterile gauze. The weight difference is calculated, expressed as percent weight change and the mean and standard deviations (SD) are calculated for the triplicate measurements. Data are analyzed using the Student's t-test.
The formation of new osteoid is analyzed histologically as follows: hemicalvaria are fixed in 10% buffered formalin for at least 2 days, decalcified in 10% EDTA overnight, processed through graded alcohols and embedded in paraffin wax. Three to 10 μm sections are prepared of the calvaria and stained with hematoxylin and eosin (H&E). Healthy cells, dead cells, old and new bone, and collagen are identified by their distinctive morphology and colouring observed after H&E staining. The surfaces taken by these are measured stereologically (μm^2 readout) and termed Osteoblast area, Debris area, Native and New bone area, Collagen area and Total area (sum of the previous 5 areas), respectively. In addition, the thickness (μm readout) is measured at 8 positions, evenly spaced over the section.
The histological readout of the calvarial skull assay is developed using known osteogenic agents. Hemicalvaria were treated with recombinant human parathyroid hormone (rhPTH).
T0901317 is added to the culture medium of the dissected hemicalvaria at the day of dissection at several doses (19.5, 78.1 and 313 nM), in fourfold. The concentration of the solvent (vehicle), DMSO, is fixed at a final concentration of 0.05%. The medium, containing T0901317 or vehicle control is refreshed every 2-3 days. Hemicalvaria are harvested 7 days after the initiation of the experiment and subjected to the histological analysis described above.

[3] = 19.5, 78.1 and 313 nM, 7 days, H&E histology
[4] = 19.5, 78.1 and 313 nM, 7 days, H&E histology, versus 0.05% DMSO

`O=S(=O)(c1ccccc1)N(CC(F)(F)F)c1ccc(C(O)(C(F)(F)F)C(F)(F)F)cc1` [T0901317] was tested, and the “BAP mRNA expression” value [1] was “up-regulated”, the “PTHR1 mRNA expression” value [1] was “up-regulated” and the “RANKL mRNA expression” value [1] was “up-regulated”. For the same compound, the “aromatase mRNA expression” value [1] was “up-regulated”, the “osteopontin mRNA expression” value [1] was “up-regulated” and the thickness [2, 3] was “Dose-response activity”. The “total area (sum of all areas measured)” value [2, 3] was “Dose-response activity”, the collagen area [2, 4] was “Statistically significant increases” and the new bone area [2, 4] was “Statistically significant increases”. The osteoblast area [2, 4] was “Statistically significant increases; also recorded: Dose-response activity” and the “weight change of calvarial skull explants” value ([2]; figure legends FIG. 17 and FIG. 18) was “Weight increases”.
